Test results as given in ChEMBL document CHEMBL1201862, “PubChem BioAssay data set” (2004).
Calls of active or inactive are those of the source.

What was measured:
[1] = target: 5-hydroxytryptamine receptor 5A (Homo sapiens, UniProt P47898); assay: Counterscreen for agonists of OPRM1-OPRD1 heterodimerization: luminescence-based cell-based high throughput dose response assay to identify agonists of 5-hydroxytryptamine (serotonin) 5A receptor (HTR5A). [Related pubchem assays (depositor defined):AID504326, AID504355, AID504692, AID504904, AID504905]; type: functional
Sequence of 5-hydroxytryptamine receptor 5A (P47898 whole entry): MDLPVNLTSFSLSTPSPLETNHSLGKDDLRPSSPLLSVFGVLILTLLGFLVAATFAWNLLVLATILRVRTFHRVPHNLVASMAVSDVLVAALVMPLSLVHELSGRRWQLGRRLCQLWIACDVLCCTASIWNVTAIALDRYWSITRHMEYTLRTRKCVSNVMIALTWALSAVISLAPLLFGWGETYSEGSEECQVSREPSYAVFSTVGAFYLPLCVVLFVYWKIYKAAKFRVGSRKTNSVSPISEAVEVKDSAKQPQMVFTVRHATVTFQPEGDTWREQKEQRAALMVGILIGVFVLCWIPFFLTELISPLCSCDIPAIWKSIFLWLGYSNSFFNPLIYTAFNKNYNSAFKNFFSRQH

[2] = target: Delta-type opioid receptor (Homo sapiens, UniProt P41143); assay: Counterscreen for agonists of heterodimerization of the mu 1 (OPRM1) and delta 1 (OPRD1) opioid receptors: Luminescence-based cell-based high throughput dose response assay to identify agonists of OPRD1 homodimerization. [Related pubchem assays (depositor defined):AID504326, AID504355, AID504692, AID504904, AID504905]; type: functional
Sequence of Delta-type opioid receptor (P41143 whole entry): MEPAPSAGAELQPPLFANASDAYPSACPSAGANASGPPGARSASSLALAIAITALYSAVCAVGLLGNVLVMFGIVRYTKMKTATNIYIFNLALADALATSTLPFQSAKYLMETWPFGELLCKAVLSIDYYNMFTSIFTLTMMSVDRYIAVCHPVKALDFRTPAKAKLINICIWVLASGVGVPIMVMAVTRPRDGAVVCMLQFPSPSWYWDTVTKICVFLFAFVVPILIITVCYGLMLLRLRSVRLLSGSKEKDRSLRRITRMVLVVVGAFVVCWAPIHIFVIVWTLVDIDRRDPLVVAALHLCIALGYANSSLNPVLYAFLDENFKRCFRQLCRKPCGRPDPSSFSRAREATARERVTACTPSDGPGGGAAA

[3] = target: T1, Short transient receptor potential channel 4 (Mus musculus, UniProt Q9QUQ5); assay: calcium entry via TRPC4 opening agents – cell-based, HEK293 TRPC4/mu-opioid, Fluo-4 calcium, dose response (AID 434937); type: functional
T1 sequence (Q9QUQ5 whole entry): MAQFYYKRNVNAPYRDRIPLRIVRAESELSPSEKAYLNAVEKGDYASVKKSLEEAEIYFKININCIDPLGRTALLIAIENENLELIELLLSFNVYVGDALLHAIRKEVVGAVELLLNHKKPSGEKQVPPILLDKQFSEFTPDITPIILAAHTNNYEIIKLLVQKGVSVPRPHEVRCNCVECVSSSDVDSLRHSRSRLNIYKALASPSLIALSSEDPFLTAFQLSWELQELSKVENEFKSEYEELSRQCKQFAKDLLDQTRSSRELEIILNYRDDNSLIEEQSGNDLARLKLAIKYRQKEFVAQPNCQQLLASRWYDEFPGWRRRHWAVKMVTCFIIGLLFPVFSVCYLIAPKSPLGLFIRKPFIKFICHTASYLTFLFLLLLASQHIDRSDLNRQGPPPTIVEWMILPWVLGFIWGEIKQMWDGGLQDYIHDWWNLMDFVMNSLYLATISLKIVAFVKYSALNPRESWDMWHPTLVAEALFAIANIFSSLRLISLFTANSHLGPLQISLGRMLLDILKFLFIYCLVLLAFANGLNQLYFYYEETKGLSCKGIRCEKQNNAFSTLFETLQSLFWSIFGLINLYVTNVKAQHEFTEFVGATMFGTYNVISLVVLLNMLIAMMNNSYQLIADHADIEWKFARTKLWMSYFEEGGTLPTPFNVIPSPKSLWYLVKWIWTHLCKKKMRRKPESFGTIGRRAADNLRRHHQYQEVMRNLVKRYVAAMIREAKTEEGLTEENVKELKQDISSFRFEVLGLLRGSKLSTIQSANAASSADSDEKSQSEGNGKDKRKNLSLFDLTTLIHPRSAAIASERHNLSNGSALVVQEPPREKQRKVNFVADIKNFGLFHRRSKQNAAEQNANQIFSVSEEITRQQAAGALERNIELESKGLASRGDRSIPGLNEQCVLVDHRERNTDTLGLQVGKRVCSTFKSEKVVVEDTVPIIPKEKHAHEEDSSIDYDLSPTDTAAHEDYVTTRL

[4] = target: Mu-type opioid receptor (Homo sapiens, UniProt P35372); assay: Counterscreen for agonists of heterodimerization of the mu 1 (OPRM1) and delta 1 (OPRD1) opioid receptors: Luminescence-based cell-based high throughput dose response assay to identify agonists of OPRM1 homodimerization.; type: functional;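 also: U2OS cells expressing OPRM1 and beta-arrestin as split beta-galactosidase partners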
Sequence of Mu-type opioid receptor (P35372 whole entry): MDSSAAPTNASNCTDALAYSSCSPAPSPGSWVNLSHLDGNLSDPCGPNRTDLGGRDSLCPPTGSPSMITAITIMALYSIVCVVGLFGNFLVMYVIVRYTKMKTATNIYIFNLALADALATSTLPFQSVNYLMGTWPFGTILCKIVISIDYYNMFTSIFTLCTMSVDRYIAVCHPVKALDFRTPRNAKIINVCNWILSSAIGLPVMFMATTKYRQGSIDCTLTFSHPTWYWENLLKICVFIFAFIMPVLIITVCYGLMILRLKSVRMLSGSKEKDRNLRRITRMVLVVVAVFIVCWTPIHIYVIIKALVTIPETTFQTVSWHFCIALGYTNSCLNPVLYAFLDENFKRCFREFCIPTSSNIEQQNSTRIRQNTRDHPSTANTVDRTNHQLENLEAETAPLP

[5] = target: T2, CAAX prenyl protease 2 (Saccharomyces cerevisiae S288c, UniProt Q03530); type: biochemical
T2 sequence (Q03530 whole entry): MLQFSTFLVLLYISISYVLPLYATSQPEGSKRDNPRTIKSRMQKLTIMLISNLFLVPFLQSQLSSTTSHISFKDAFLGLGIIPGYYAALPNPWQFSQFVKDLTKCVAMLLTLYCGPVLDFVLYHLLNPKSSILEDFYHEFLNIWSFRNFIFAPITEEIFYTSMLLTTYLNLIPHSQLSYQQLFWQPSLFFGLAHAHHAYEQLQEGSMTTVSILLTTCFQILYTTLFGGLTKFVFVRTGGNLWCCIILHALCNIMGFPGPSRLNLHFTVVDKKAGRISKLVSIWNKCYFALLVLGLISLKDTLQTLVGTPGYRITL

[6] = target: Melanocortin receptor 4 (Homo sapiens, UniProt P32245); type: functional, cell-based;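 also: Cell-based assay with luminescence read-out, confirmatory dose-response testing for agonist activity of biased ligands at MC4R; human U2OS cells with tagged receptor and beta-arrestin; potency of agonists that increase receptor coupling to beta-arrestin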
Sequence of Melanocortin receptor 4 (P32245 whole entry): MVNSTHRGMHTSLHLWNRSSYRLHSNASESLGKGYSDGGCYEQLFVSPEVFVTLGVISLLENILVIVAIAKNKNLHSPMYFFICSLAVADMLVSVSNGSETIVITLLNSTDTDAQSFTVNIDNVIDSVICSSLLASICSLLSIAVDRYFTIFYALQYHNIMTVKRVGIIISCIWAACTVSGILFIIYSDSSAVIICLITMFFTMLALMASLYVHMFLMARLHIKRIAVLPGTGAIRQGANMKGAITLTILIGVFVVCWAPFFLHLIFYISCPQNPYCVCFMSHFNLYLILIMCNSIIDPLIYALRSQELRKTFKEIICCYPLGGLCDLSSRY

[7] = target: Trypsin (Sus scrofa, UniProt P00761); assay: trypsin protease activity blockade – biochemical, quenched peptide fluorescence, cherry-pick, selectivity assay for Rce1 protease inhibitor project, dose response (AID 488789)
Sequence of Trypsin (P00761 whole entry): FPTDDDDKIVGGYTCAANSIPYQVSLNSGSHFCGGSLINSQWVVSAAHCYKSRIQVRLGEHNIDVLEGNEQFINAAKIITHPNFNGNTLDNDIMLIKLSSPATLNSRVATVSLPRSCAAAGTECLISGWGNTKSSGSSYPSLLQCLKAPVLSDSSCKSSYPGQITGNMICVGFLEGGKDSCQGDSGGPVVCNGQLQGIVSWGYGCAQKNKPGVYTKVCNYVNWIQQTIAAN

[8] = target: CAAX prenyl protease 1 (Saccharomyces cerevisiae S288c, UniProt P47154); assay: yeast CAAX protease Ste24 inhibition – biochemical, S. cerevisiae, plate reader, cherry-pick, dose response (AID 488815)
Sequence of CAAX prenyl protease 1 (P47154 whole entry): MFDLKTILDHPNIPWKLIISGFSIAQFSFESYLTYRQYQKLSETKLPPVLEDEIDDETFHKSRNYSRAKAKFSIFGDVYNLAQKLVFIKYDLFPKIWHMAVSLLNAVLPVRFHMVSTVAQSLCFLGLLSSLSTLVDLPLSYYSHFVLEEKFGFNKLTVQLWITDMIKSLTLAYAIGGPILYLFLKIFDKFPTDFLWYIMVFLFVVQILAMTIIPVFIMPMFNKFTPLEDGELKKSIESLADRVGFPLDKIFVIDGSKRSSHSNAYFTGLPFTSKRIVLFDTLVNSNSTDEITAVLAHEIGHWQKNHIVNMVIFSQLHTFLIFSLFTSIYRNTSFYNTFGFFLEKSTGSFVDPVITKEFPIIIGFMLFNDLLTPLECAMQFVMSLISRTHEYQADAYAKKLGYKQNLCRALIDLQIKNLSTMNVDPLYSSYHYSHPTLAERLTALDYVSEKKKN

[9] = target: T3, Endoribonuclease toxin MazF (Escherichia coli K-12, UniProt P0AE70); assay: substrate-only fluorescence increase artefacts – biochemical, single-stranded RNase substrate, counter-screen for MazEF activator project, dose response (AID 588502); type: functional
T3 sequence (P0AE70 whole entry): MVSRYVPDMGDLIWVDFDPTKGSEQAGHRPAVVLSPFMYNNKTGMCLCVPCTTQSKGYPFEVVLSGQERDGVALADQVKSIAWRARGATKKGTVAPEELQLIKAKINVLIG

[10] = target: T3, Endoribonuclease toxin MazF; assay: activation of MazEF endoribonuclease cleavage – biochemical, fluorescence, single-stranded RNA substrate, uHTS hits, dose response (AID 588481); type: functional
[11] = target: CAAX prenyl protease 2 (Homo sapiens, UniProt Q9Y256); assay: inhibition of Ras-converting CAAX protease Rce1 – biochemical, yeast membranes, quenched-peptide fluorescence, cherry-pick, dose response (AID 588849)
Sequence of CAAX prenyl protease 2 (Homo sapiens, UniProt Q9Y256) (Q9Y256 whole entry): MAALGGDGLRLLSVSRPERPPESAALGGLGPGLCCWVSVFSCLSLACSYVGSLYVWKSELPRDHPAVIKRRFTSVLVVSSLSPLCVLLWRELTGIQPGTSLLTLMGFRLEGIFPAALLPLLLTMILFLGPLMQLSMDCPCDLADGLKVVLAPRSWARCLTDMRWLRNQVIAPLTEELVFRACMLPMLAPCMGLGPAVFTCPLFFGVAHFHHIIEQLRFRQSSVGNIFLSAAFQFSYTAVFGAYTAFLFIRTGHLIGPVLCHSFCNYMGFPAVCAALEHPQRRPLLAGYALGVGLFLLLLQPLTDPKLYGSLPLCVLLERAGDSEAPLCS

[12] = test system: Vero; assay: Vero E6 cell cytotoxicity, dose response, cytotoxicity control (AID 540298); type: functional; details: Chlorocebus sabaeus
[13] = target: Nonstructural protein 1 (Influenza A virus, UniProt Q194T2); type: functional, Influenza A virus (A/California/07/2009(H1N1))
Sequence of Nonstructural protein 1 (Q194T2 whole entry): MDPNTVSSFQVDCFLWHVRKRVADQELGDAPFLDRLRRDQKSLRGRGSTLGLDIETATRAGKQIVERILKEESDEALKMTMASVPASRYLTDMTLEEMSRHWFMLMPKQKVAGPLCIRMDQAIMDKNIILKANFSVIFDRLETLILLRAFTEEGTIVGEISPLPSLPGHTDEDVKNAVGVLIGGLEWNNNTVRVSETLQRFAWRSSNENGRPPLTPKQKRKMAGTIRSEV

[14] = test system: MDCK; assay: antiviral activity against H1N1 influenza, dose response, cell-based, strain KY136 (AID 540257); type: functional; details: Canis lupus familiaris
[15] = test system: MDCK; assay: MDCK cell cytotoxicity, dose response, cytotoxicity control (AID 540296); type: functional; details: Canis lupus familiaris
[16] = test system: HEK293; assay: cells; details: Homo sapiens
[17] = NIH3T3 cell viability loss – ATP luminescence, mouse fibroblasts, counter-screen, dose response (AID 2010); type: functional, cell-based;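 also: cells exposed to compound for about 90 hours before reading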
[18] = Trypanosoma cruzi growth suppression in host cells – NIH3T3 host cells, beta-gal luminescence, confirmation (AID 2044); type: functional, cell-based;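 also: intracellular parasites grown in NIH/3T3 mouse fibroblasts as host cells; luminescent beta-galactosidase reporter signal from transgenic T. cruzi replicating inside host cells; inhibitors lower the luminescence signal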
[19] = test system: HEK293; assay: cells; details: Homo sapiens; remark: listed apart in the source
[20] = test system: A-375; assay: proliferation inhibition in MITF-low A375 cells – cell-based, cherry-pick samples, set 2, counter-screen for MITF modulator project, dose response (AID 540335); type: functional; details: Homo sapiens
[21] = test system: A-375; assay: MITF: Counter assay: A375 proliferation Measured in Cell-Based System Using Plate Reader - 2084-03_Inhibitor_Dose_DryPowder_Activity. [Related pubchem assays (depositor defined):AID488944]; type: functional; details: Homo sapiens
[22] = test system: Escherichia coli; assay: microbe, parasite or virus in culture
[23] = Vero E6 cell cytotoxicity, dose response, cytotoxicity control for non-replicating M. tuberculosis project, secondary assay (AID 492998); type: functional, VeroE6; details: Vero C1008
[24] = THP-1 cell cytotoxicity, dose response, cytotoxicity control for non-replicating M. tuberculosis project (AID 489025); type: functional
[25] = Luminescence-based dose response cell-based high throughput screening assay for cytotoxic compounds using the IEC-6 intestinal epithelial cell line. [Related pubchem assays: 1858 (Summary AID.), 1825 (Counterscreen.), 1907 (Confirmation screen.)]; type: functional
[26] = test system: Escherichia coli; assay: microbe, parasite or virus in culture; remark: listed apart in the source
[27] = cells; type: functional
[28] = HepG2 cell cytotoxicity, dose response, cytotoxicity control for non-replicating M. tuberculosis project (AID 489018); type: functional; details: Mycobacterium tuberculosis
[29] = target: Paired box protein Pax-8 (Homo sapiens, UniProt Q06710); assay: PAX8 transcriptional activity inhibition in RMG-I – RMG-I cells, luciferase, cherry-pick, dose response (AID 687027); type: functional, cell-based;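 also: luciferase reporter driven by Pax8 target thyroperoxidase promoter measured by SteadyGlo luminescence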
Sequence of Paired box protein Pax-8 (Q06710 whole entry): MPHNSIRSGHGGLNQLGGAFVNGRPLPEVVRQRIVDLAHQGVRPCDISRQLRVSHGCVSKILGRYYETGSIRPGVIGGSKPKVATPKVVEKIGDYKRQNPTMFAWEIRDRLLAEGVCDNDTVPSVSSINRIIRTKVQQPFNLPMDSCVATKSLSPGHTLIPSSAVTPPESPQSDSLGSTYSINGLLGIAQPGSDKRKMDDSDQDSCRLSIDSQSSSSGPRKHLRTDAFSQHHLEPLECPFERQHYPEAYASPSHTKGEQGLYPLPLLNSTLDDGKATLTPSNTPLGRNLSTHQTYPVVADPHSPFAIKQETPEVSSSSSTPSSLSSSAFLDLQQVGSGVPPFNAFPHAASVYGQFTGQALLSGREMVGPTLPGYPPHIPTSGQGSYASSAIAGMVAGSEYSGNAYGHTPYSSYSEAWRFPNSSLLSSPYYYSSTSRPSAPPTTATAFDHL

Cc1ccc(Cl)cc1NC(=O)CNCC(c1ccccc1)N(C)C (configuration not stated)
EC50 [1]: > 92.5 µM (inactive) | EC50 [2]: > 92.5 µM (inactive) | EC50 [3]: 0.376 µM (active) | EC50 [4]: > 92.5 µM (inactive)

Cc1nc(NC(=O)c2cccc(-c3cc4ccccc4oc3=O)c2)ccc1Br
AC50 [5]: > 100 µM (inactive) | EC50 [6]: > 89.2 µM (inactive) | AC50 [7]: 16.6 µM (active) | AC50 [8]: 11.9 µM (active) | EC50 [9]: > 99 µM (inactive) | EC50 [10]: > 99 µM (inactive)

CCc1cc(=O)oc2cc(OCC(=O)N3CCC(C(=O)O)CC3)ccc12
AC50 [5]: 31.9 µM (active) | AC50 [11]: 14.3 µM (active)

CCc1ccccc1NC(=O)CSc1nc2nnc(C)c-2c(N)n1-c1cccc(OC)c1
CC50 [12]: 24.4 µM (active) | IC50 [13]: > 100 µM (active) | IC50 [14]: 7.75 µM (active) | CC50 [15]: 35.7 µM (active)

Cc1cc(C)nc(SC2c3cccc4cccc(c34)C2NS(=O)(=O)c2ccccc2)n1 (configuration not stated)
EC50 [16]: > 59.6 µM (inactive) | EC50 [17]: 12.8 µM (active) | EC50 [18]: 1.87 µM (active) | EC50 [19]: > 59.6 µM (inactive)

Cc1csc(NC(=O)Cc2c(F)cccc2Cl)n1
AC50 [20]: > 35 µM (active) | AC50 [21]: > 35 µM (active)

CN1CCc2c(sc(NC(=O)c3ccc([N+](=O)[O-])o3)c2C(N)=O)C1
AC50 [22]: 23.2 µM (active) | CC50 [23]: 0.54 µM (active) | CC50 [24]: 1.21 µM (active) | IC50 [25]: 0.879 µM (active) | EC50 [17]: 3.92 µM (active) | AC50 [26]: 26.4 µM (active) | EC50 [18]: 1.26 µM (active) | IC50 [27]: 17.6 µM (active) | CC50 [28]: 2.55 µM (active) | AC50 [29]: 1.67 µM (active)
